We go through 23 compounds from patent publication US10865208B2, “ATG7 inhibitors and the uses thereof” (Millennium Pharmaceuticals, Inc., priority 2016, dated 2020).

One may read the IC50 as the point on the concentration scale where inhibition reaches its midpoint. The inhibition is how much of the control response was suppressed.

The assay concerns the target recombinant human His-ATG7 enzyme (Homo sapiens (Human), UniProt O95352). Description: ATG7 Enzyme Assay (HTRF/FRET, ATG3-GST and Flag-Gabarap). Conditions: for inhibition at 0.123 µM: Concentration 0.123 μM. It counts as biochemical. The procedure, abridged: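 0.15 nM His-ATG7 was reacted with 5 nM ATG3-GST, 5 nM Flag-Gabarap and 10 μM ATP in HEPES pH 7.5 containing MgCl2, GSH and TCEP for 105 min at 24° C, then stopped with EDTA/KF. Eu-anti-Flag and anti-GST-APC HTRF was read after 2 h. Results are given as single-concentration % inhibition or IC50.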
In general terms: TR-FRET usually uses a lanthanide donor and a delayed reading to cut background.

The mark [1] stands for this setting: Concentration 0.111 μM, read-out: Percent Inhibition.

recombinant human His-ATG7 enzyme, sequence (O95352 whole entry): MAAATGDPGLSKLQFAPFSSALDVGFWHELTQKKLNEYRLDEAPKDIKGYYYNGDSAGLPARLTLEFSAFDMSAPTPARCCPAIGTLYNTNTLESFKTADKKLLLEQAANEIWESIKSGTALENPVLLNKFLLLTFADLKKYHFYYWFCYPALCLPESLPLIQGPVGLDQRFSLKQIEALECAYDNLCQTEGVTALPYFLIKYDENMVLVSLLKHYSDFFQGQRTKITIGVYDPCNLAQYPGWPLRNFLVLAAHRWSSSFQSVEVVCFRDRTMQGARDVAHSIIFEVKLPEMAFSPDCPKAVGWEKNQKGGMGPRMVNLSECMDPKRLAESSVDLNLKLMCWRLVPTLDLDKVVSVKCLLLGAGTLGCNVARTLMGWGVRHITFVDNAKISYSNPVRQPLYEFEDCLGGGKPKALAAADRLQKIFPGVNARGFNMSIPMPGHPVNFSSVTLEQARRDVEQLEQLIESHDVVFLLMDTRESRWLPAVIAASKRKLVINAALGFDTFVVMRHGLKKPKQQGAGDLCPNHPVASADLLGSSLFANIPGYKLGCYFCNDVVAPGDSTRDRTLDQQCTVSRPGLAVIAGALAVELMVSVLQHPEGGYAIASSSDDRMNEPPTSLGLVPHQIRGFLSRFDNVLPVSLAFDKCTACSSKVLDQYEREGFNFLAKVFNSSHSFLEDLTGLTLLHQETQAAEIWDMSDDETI

In the case of `Nc1ncnc2c1c(Oc1ccccc1)nn2[C@@H]1O[C@H](COS(N)(=O)=O)[C@@H](O)[C@H]1O` [Compound I-37, [(2R,3S,4R,5R)-5-(4-amino-3-phenoxy-1H-pyrazolo[3,4-d]pyrimidin-1-yl)-3,4-dihydroxytetrahydrofuran-2-yl]methyl sulfamate], the IC50 is more than 500 nM. Also, the inhibition at 0.069 µM (Concentration 0.069 μM, read-out: Percent Inhibition) came out at 7%.
Take `Nc1ncnc2c1c(SCc1cccc3ccccc13)nn2[C@@H]1O[C@H](COS(N)(=O)=O)[C@@H](O)[C@H]1O` [Compound I-67, [(2R,3S,4R,5R)-5-{4-amino-3-[(1-naphthylmethyl)sulfanyl]-1H-pyrazolo[3,4-d]pyrimidin-1-yl}-3,4-dihydroxytetrahydrofuran-2-yl]methyl sulfamate]: the IC50 is 50 to 100 nM. Besides, the inhibition at 0.123 µM (read-out: Percent Inhibition) stood at 64%.
Turning to `Nc1ncnc2c1c(Sc1cccc(C(F)(F)F)c1)nn2[C@@H]1O[C@H](COS(N)(=O)=O)[C@@H](O)[C@@H]1F` [Compound I-158, [(2R,3R,4S,5R)-5-(4-amino-3-{[3-(trifluoromethyl)phenyl]sulfanyl}-1H-pyrazolo[3,4-d]pyrimidin-1-yl)-4-fluoro-3-hydroxytetrahydrofuran-2-yl]methyl sulfamate], the IC50 was in the range of 50 to 100 nM. Under setting [1], the inhibition at 0.111 µM came out at 56%.
On to `Nc1ncnc2c1c(SCc1ccccn1)nn2[C@@H]1O[C@H](COS(N)(=O)=O)[C@@H](O)[C@@H]1F` [Compound I-119, [(2R,3R,4S,5R)-5-{4-amino-3-[(pyridin-2-ylmethyl)sulfanyl]-1H-pyrazolo[3,4-d]pyrimidin-1-yl}-4-fluoro-3-hydroxytetrahydrofuran-2-yl]methyl sulfamate], for which the IC50 was in the range of 50 to 100 nM. The inhibition at 0.111 µM under setting [1] is 65%.
Turning to `Nc1ncnc2c1c(Sc1cccnc1)nn2[C@@H]1O[C@H](COS(N)(=O)=O)[C@@H](O)[C@@H]1F` [Compound I-138, {(2R,3R,4S,5R)-5-[4-amino-3-(pyridin-3-ylsulfanyl)-1H-pyrazolo[3,4-d]pyrimidin-1-yl]-4-fluoro-3-hydroxytetrahydrofuran-2-yl}methyl sulfamate], the IC50 lay within 50 to 100 nM. Also, the inhibition at 0.111 µM under setting [1] came to 64%.
Consider `Nc1ncnc2c1c(SCc1ccc(OC(F)(F)F)cc1)nn2[C@@H]1O[C@H](COS(N)(=O)=O)[C@@H](O)[C@H]1O` [Compound I-32, [(2R,3S,4R,5R)-5-(4-amino-3-{[4-(trifluoromethoxy)benzyl]sulfanyl}-1H-pyrazolo[3,4-d]pyrimidin-1-yl)-3,4-dihydroxytetrahydrofuran-2-yl]methyl sulfamate], for which the IC50 is 20 to 50 nM. Further, the inhibition at 0.123 µM (read-out: Percent Inhibition) was determined as 73%.
As for `Nc1ncnc2c1c(Sc1ccccc1F)nn2[C@@H]1O[C@H](COS(N)(=O)=O)[C@@H](O)[C@@H]1F` [Compound I-109, [(2R,3R,4S,5R)-5-{4-amino-3-[(2-fluorophenyl)sulfanyl]-1H-pyrazolo[3,4-d]pyrimidin-1-yl}-4-fluoro-3-hydroxytetrahydrofuran-2-yl]methyl sulfamate], the IC50 is 20 to 50 nM. Also, the inhibition at 0.111 µM under setting [1] amounted to 82%.
The matching figures for `CN(C)C(=O)CSc1nn([C@H]2C[C@H](O)[C@@H](COS(N)(=O)=O)O2)c2ncnc(N)c12` [Compound I-180, [(2R,3S,5R)-5-(4-amino-3-{[2-(dimethylamino)-2-oxoethyl]sulfanyl}-1H-pyrazolo[3,4-d]pyrimidin-1-yl)-3-hydroxytetrahydrofuran-2-yl]methyl sulfamate]: 100 to 500 nM and 29%.
`Cc1cccc(Sc2nn([C@@H]3O[C@H](COS(N)(=O)=O)[C@@H](O)[C@@H]3F)c3ncnc(N)c23)c1` [Compound I-141, [(2R,3R,4S,5R)-5-{4-amino-3-[(3-methylphenyl)sulfanyl]-1H-pyrazolo[3,4-d]pyrimidin-1-yl}-4-fluoro-3-hydroxytetrahydrofuran-2-yl]methyl Sulfamate]: the IC50 was 20 to 50 nM. For the same compound, the inhibition at 0.123 µM (read-out: Percent Inhibition) came to 76%.
With `Nc1ncnc2c1c(OC(F)F)nn2[C@@H]1O[C@H](COS(N)(=O)=O)[C@@H](O)[C@@H]1F` [Compound I-99, {(2R,3R,4S,5R)-5-[4-amino-3-(difluoromethoxy)-1H-pyrazolo[3,4-d]pyrimidin-1-yl]-4-fluoro-3-hydroxytetrahydrofuran-2-yl}methyl Sulfamate], the IC50 was in the range of 20 to 50 nM. Under setting [1], the inhibition at 0.111 µM was 70%.
The matching figures for `Nc1ncnc2c1c(SCc1cc3ccccc3s1)nn2[C@H]1C[C@H](O)[C@@H](COS(N)(=O)=O)O1` [Compound I-204, [(2R,3S,5R)-5-{4-amino-3-[(1-benzothiophen-2-ylmethyl)sulfanyl]-1H-pyrazolo[3,4-d]pyrimidin-1-yl}-3-hydroxytetrahydrofuran-2-yl]methyl sulfamate]: 100 to 500 nM and 50%.
On to `CC(C)(O)c1nn([C@@H]2O[C@H](COS(N)(=O)=O)[C@@H](O)[C@H]2O)c2ncnc(N)c12` [Compound I-24, {(2R,3S,4R,5R)-5-[4-amino-3-(2-hydroxypropan-2-yl)-1H-pyrazolo[3,4-d]pyrimidin-1-yl]-3,4-dihydroxytetrahydrofuran-2-yl}methyl Sulfamate], for which the half-maximal inhibitory concentration (IC50) is more than 500 nM. Also, the inhibition at 0.123 µM (read-out: Percent Inhibition) was found to be 11%.
Consider `Nc1ncnc2c1c(Sc1cccc(Cl)c1)nn2[C@H]1C[C@H](O)[C@H](COS(N)(=O)=O)O1` [Compound I-224, [(2S,3S,5R)-5-{4-amino-3-[(3-chlorophenyl)sulfanyl]-1H-pyrazolo[3,4-d]pyrimidin-1-yl}-3-hydroxytetrahydrofuran-2-yl]methyl sulfamate], for which the IC50 was 100 to 500 nM. For the same compound, the inhibition at 0.111 µM under setting [1] came out at 39%.
Turning to `Nc1ncnc2c1c(SCc1cccc(F)c1)nn2[C@@H]1O[C@H](COS(N)(=O)=O)[C@@H](O)[C@H]1O` [Compound I-44, [(2R,3S,4R,5R)-5-{4-amino-3-[(3-fluorobenzyl)sulfanyl]-1H-pyrazolo[3,4-d]pyrimidin-1-yl}-3,4-dihydroxytetrahydrofuran-2-yl]methyl sulfamate], the IC50 was in the range of 20 to 50 nM. The inhibition at 0.123 µM (read-out: Percent Inhibition) is 84%.
As for `CSCc1nn([C@@H]2O[C@H](COS(N)(=O)=O)[C@@H](O)[C@H]2O)c2ncnc(N)c12` [Compound I-93, [(2R,3S,4R,5R)-5-{4-amino-3-[(methylsulfanyl)methyl]-1H-pyrazolo[3,4-d]pyrimidin-1-yl}-3,4-dihydroxytetrahydrofuran-2-yl]methyl Sulfamate], the IC50 was in the range of 100 to 500 nM. Also, the inhibition at 0.123 µM (read-out: Percent Inhibition) amounted to 47%.
Turning to `Nc1ncnc2c1c(I)nn2[C@@H]1O[C@H](COS(N)(=O)=O)[C@@H](O)[C@H]1O` [Compound I-79, [(2R,3S,4R,5R)-5-(4-amino-3-iodo-1H-pyrazolo[3,4-d]pyrimidin-1-yl)-3,4-dihydroxytetrahydrofuran-2-yl]methyl sulfamate], the IC50 is less than 20 nM. The inhibition at 0.123 µM (read-out: Percent Inhibition) was 85%.
Consider `Nc1ncnc2c1c(SC(F)F)nn2[C@@H]1O[C@H](COS(N)(=O)=O)[C@@H](O)[C@H]1O` [Compound I-85, [(2R,3S,4R,5R)-5-{4-amino-3-[(difluoromethyl)sulfanyl]-1H-pyrazolo[3,4-d]pyrimidin-1-yl}-3,4-dihydroxytetrahydrofuran-2-yl]methyl sulfamate], for which the 50% inhibitory concentration (IC50) lay in the range of 20 to 50 nM. For the same compound, where the note is “read-out: Percent Inhibition”, the inhibition at 0.123 µM was 77%.
On to `Cc1ccc(Sc2nn([C@H]3C[C@H](O)C(COS(N)(=O)=O)O3)c3ncnc(N)c23)c(F)c1` (stereo in doubt) [Compound I-211, [(2S,3S,5R)-5-{4-amino-3-[(2-fluoro-4-methylphenyl)sulfanyl]-1H-pyrazolo[3,4-d]pyrimidin-1-yl}-3-hydroxytetrahydrofuran-2-yl]methyl Sulfamate], for which the IC50 lay in the range of 50 to 100 nM. Moreover, under “Concentration 0.111 μM”, the “Percent Inhibition” value stood at 64%.
For `Cn1ccnc1Sc1nn([C@@H]2O[C@H](COS(N)(=O)=O)[C@@H](O)[C@@H]2F)c2ncnc(N)c12` [Compound I-125, [(2R,3R,4S,5R)-5-{4-amino-3-[(1-methyl-1H-imidazol-2-yl)sulfanyl]-1H-pyrazolo[3,4-d]pyrimidin-1-yl}-4-fluoro-3-hydroxytetrahydrofuran-2-yl]methyl sulfamate], the IC50 is 100 to 500 nM. Further, under setting [1], the inhibition at 0.111 µM came to 37%.
Taken in the same sequence, the figures for `NC(=O)CSc1nn([C@H]2C[C@H](O)[C@@H](COS(N)(=O)=O)O2)c2ncnc(N)c12` [Compound I-159, [(2R,3S,5R)-5-{4-amino-3-[(2-amino-2-oxoethyl)sulfanyl]-1H-pyrazolo[3,4-d]pyrimidin-1-yl}-3-hydroxytetrahydrofuran-2-yl]methyl sulfamate] were 100 to 500 nM and 29%.
For the compound `Nc1ncnc2c1c(Sc1cc3c(cc1F)CCC3)nn2[C@H]1C[C@H](O)[C@@H](COS(N)(=O)=O)O1` [Compound I-203, [(2R,3S,5R)-5-{4-amino-3-[(6-fluoro-2,3-dihydro-1H-inden-5-yl)sulfanyl]-1H-pyrazolo[3,4-d]pyrimidin-1-yl}-3-hydroxytetrahydrofuran-2-yl]methyl Sulfamate], the IC50 lay in the range of 50 to 100 nM. Besides, the inhibition at 0.111 µM under setting [1] is 58%.
The matching figures for `Nc1ncnc2c1c(Sc1ccc3c(c1)OCC3)nn2[C@H]1C[C@H](O)[C@@H](COS(N)(=O)=O)O1` [Compound I-168, {(2R,3S,5R)-5-[4-amino-3-(2,3-dihydro-1-benzofuran-6-ylsulfanyl)-1H-pyrazolo[3,4-d]pyrimidin-1-yl]-3-hydroxytetrahydrofuran-2-yl}methyl sulfamate]: 20 to 50 nM and 77%.
Taken in the same sequence, the figures for `Cc1ccnc(Sc2nn([C@@H]3O[C@H](COS(N)(=O)=O)[C@@H](O)[C@@H]3F)c3ncnc(N)c23)c1` [Compound I-114, [(2R,3R,4S,5R)-5-{4-amino-3-[(4-methylpyridin-2-yl)sulfanyl]-1H-pyrazolo[3,4-d]pyrimidin-1-yl}-4-fluoro-3-hydroxytetrahydrofuran-2-yl]methyl sulfamate] were less than 20 nM and 90%.
